For 13 compounds, IC50 results are on record in patent US20100168102A9, “Amide Derivatives as Kinase Inhibitors” (Devgen NV, priority 2005, published 2010).

Structures are written as SMILES. Counter-ions that a name gives are not always drawn. Like-named read-outs stand apart in the source and are kept apart here.

The target in one experiment is T1, PKC epsilon (Homo sapiens, UniProt Q02156).
T1 construct: purchased Invitrogen P2282
T1 sequence (Q02156 1-737): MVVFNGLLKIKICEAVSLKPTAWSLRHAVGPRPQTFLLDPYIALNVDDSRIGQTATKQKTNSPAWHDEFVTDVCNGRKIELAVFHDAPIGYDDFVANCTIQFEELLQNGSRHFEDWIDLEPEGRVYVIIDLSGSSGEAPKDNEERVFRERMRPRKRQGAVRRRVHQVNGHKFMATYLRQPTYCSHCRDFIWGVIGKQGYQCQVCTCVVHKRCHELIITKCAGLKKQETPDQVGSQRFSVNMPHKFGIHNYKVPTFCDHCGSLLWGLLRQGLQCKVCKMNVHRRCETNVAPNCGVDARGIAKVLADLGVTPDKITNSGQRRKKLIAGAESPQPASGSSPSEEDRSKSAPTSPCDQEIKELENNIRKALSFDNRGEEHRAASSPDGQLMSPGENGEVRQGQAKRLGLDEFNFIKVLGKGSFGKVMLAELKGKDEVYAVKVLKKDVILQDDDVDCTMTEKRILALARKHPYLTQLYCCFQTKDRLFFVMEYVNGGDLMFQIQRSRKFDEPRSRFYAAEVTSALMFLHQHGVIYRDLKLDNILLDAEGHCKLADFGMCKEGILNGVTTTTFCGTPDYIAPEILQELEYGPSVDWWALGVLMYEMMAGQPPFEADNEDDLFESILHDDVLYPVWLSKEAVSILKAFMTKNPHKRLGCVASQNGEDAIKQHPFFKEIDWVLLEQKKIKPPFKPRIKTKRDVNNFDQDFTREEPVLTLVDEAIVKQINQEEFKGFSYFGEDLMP
Kind of experiment: Biochemical assay for PKC epsilon (fluorescence polarization, Protein Kinase C Assay Kit, Red). The following applies: read-out: IC50 μM PKCε. In outline:
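Read-out was fluorescence-polarization competition between phosphorylated substrate and a rhodamine PKC tracer for an anti-phosphoserine antibody, added with EDTA stop after an 80 min room-temperature kinase reaction with ATP and protein substrate (Mg2+/Ca2+ buffer). Enzyme (10 ng/ml final) was preincubated with compound for 30 min.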
Background: In fluorescence polarisation assays a small probe gives low polarisation when free and higher when bound to something large.

In the next experiment the target is T2, human ROCKα/ROCKII mix (Homo sapiens, UniProt O75116).
T2 construct: purchased Upstate Biotechnology 14-451
Kind of experiment: Biochemical assay for ROCK (fluorescence polarization, ROCK IMAP Kit).

Setting [1] is: Table 2, compounds of Formula XIII.
Where [2] appears, read: compounds of Formula XIV, Table 3.

T2 sequence (O75116 11-552 limits assumed): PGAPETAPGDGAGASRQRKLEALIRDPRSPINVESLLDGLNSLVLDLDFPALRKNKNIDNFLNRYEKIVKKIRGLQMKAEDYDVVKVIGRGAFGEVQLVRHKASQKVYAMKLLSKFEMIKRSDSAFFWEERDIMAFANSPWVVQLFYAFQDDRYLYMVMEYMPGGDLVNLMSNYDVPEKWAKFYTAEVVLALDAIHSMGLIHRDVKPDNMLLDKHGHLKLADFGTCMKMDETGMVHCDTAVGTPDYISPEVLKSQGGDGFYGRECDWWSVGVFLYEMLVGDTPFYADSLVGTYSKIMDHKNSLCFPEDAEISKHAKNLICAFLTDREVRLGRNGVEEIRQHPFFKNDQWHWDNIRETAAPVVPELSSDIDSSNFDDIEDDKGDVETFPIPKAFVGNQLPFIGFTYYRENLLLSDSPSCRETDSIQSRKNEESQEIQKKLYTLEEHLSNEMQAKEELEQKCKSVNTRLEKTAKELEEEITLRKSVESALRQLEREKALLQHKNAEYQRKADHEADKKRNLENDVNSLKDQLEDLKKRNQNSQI

Turning to `Cc1cc(Cl)ccc1OC(C)C(=O)NCC(N)c1ccc(C(=O)Nc2ccncc2)cc1` (centres unmarked) [Compound 159, 4-{1-Amino-2-[2-(4-chloro-2-methyl-phenoxy)-propionylamino]-ethyl}-N-pyridin-4-yl-benzamide], the figures for the IC50 on PKC epsilon (setting [1]) and at human ROCKα/ROCKII mix (setting [1]) were 0.5 to 5 µM and 0.05 to 0.5 µM, respectively.

Take `NC(CC(=O)NC(c1ccccc1)c1ccccc1)c1ccc(C(=O)Nc2ccncc2)cc1` (centres unmarked) [Compound 225, 4-[1-Amino-2-(benzhydryl-carbamoyl)-ethyl]-N-pyridin-4-yl-benzamide]: the figures for the 50% inhibitory concentration (IC50) on PKC epsilon (setting [2]) and against human ROCKα/ROCKII mix (setting [2]) were 0.5 to 5 µM and 0.05 to 0.5 µM, respectively.

Consider `NC(CNC(=O)Cc1csc(-c2ccccc2)n1)c1ccc(C(=O)Nc2ccncc2)cc1` (centres unmarked) [Compound 154, 4-{1-Amino-2-[2-(2-phenyl-thiazol-4-yl)-acetylamino]-ethyl}-N-pyridin-4-yl-benzamide], for which the IC50 at PKC epsilon (setting [1]) was 5 to 50 µM; at human ROCKα/ROCKII mix (setting [1]), 0.05 to 0.5 µM.

Take `NC(CNC(=O)c1ccc2[nH]nnc2c1)c1ccc(C(=O)Nc2ccncc2)cc1` (centres unmarked) [Compound 127, 1H-Benzotriazole-5-carboxylic acid {2-amino-2-[4-(pyridin-4-ylcarbamoyl)-phenyl]-ethyl}-amide]: the IC50 on PKC epsilon (setting [1]) lay in the range of 5 to 50 µM; on human ROCKα/ROCKII mix (setting [1]), 0.5 to 5 µM.

Turning to `NC(c1ccc(C(=O)Nc2ccncc2)cc1)C1CCCN1C(=O)C1(c2ccc(F)cc2Cl)CC1` (centres unmarked) [Compound 600, 4-(Amino-{1-[1-(2-chloro-4-fluoro-phenyl)-cyclopropanecarbonyl]-pyrrolidin-2-yl}-methyl)-N-pyridin-4-yl-benzamide], the IC50 at PKC epsilon and on human ROCKα/ROCKII mix was 0.5 to 5 µM each time.

Turning to `CC(=O)Nc1ccc(C(=O)NCC(N)c2ccc(C(=O)Nc3ccncc3)cc2)cc1` (centres unmarked) [Compound 83, 4-[1-amino-2-(4-acetylamino-benzoylamino)-ethyl]-N-pyridin-4-yl-benzamide], the IC50 at PKC epsilon (setting [1]) lay in the range of 5 to 50 µM; against human ROCKα/ROCKII mix (setting [1]) it was 0.5 to 5 µM.

As to `CN(CC(N)c1ccc(C(=O)Nc2ccncc2)cc1)C(=O)Cc1c(F)cccc1Cl` (centres unmarked) [Compound 496, 4-(1-Amino-2-{[2-(2-chloro-6-fluoro-phenyl)-acetyl]-methyl-amino}-ethyl)-N-pyridin-4-yl-benzamide], the IC50 at PKC epsilon fell in the range of 5 to 50 µM; against human ROCKα/ROCKII mix, 0.5 to 5 µM.

Regarding `NC(CNC(=O)c1cccc(F)c1)c1ccc(C(=O)Nc2ccncc2)cc1` (centres unmarked) [Compound 92, 4-[1-amino-2-(3-fluoro-benzoylamino)-ethyl]-N-pyridin-4-yl-benzamide], the IC50 on PKC epsilon (setting [1]) and against human ROCKα/ROCKII mix (setting [1]) was 0.5 to 5 µM each time.

For `NC(c1ccc(C(=O)Nc2ccncc2)cc1)C1CCCN1C(=O)C1(c2ccc(F)cc2F)CC1` (centres unmarked) [Compound 582, 4-(Amino-{1-[1-(2,4-difluoro-phenyl)-cyclopropanecarbonyl]-pyrrolidin-2-yl}-methyl)-N-pyridin-4-yl-benzamide], the IC50 on PKC epsilon and against human ROCKα/ROCKII mix was 0.5 to 5 µM each time.

On to `NC(CNC(=O)COc1ccccc1)c1ccc(C(=O)Nc2ccncc2)cc1` (centres unmarked) [Compound 156, 4-[1-Amino-2-(2-phenoxy-acetylamino)-ethyl]-N-pyridin-4-yl-benzamide], for which the IC50 at PKC epsilon (setting [1]) and against human ROCKα/ROCKII mix (setting [1]) was 0.05 to 0.5 µM throughout.

On to `N[C@@H](CC(=O)N[C@H]1CCCc2ccccc21)c1ccc(C(=O)Nc2ccncc2)cc1` [Compound 375, 4{(S)-1-Amino-2-[(S)-(1,2,3,4-tetrahydro-naphthalen-1-yl)carbamoyl]-ethyl}-N-pyridin-4-yl-benzamide dihydrochloric acid salt], for which the IC50 on PKC epsilon was 5 to 50 µM; at human ROCKα/ROCKII mix, 0.05 to 0.5 µM.

As for `NC(CC(=O)NCCc1ccccc1F)c1ccc(C(=O)Nc2ccncc2)cc1` (centres unmarked) [Compound 305, 4-{1-Amino-2-[2-(2-fluoro-phenyl)-ethylcarbamoyl]-ethyl}-N-pyridin-4-yl-benzamide], the IC50 lay within 0.5 to 5 µM on PKC epsilon (setting [2]) and 0.05 to 0.5 µM against human ROCKα/ROCKII mix (setting [2]).

As to `NC(c1ccc(C(=O)Nc2ccncc2)cc1)C1CCCN1C(=O)Cc1ccc(F)c(Cl)c1` (centres unmarked) [Compound 603, 4-(Amino-{1-[2-(3-chloro-4-fluoro-phenyl)-acetyl]-pyrrolidin-2-yl}-methyl)-N-pyridin-4-yl-benzamide], the IC50 on PKC epsilon lay in the range of 0.5 to 5 µM; against human ROCKα/ROCKII mix, 0.05 to 0.5 µM.

By IC50 is commonly meant the point on the concentration scale where inhibition reaches its midpoint.
